SMILES strings stand for the structures.

The target of test [1] is c-Cbl (Homo sapiens (Human), UniProt P22681). Nature of the test: C-cbl LCK Ub TR-FRET assay (C-cbl Lck HTRF). Type of test: biochemical. On the procedure: (§1) Compounds were 3-fold serially diluted in DMSO in a 384-well polypropylene plate (#P-05525-BC; Labcyte) to generate a source plate with 10 concentrations of each compound, top concentration=2 mM. 80 nL of DMSO or compounds were transferred to each well of a black 384-well ProxiPlate (#6008260; PerkinElmer) using a Labcyte Echo. 1× assay buffer (50 mM HEPES pH7.0, 100 mM NaCl, 0.01% BSA, 0.01% Triton-X100, 1 mM DTT), 2× enzyme solution (16 nM Biotin-Cbl-b or 12 nM Biotin-c-Cbl in 1× assay buffer), 2× kinase mixture (120 nM His-LCK, 1 mM ATP, 10 mM MgCl2 in assay buffer) and 2.33× detection mixture (4.66× solution 1: 163 nM Anti-HA-D2 antibody (#610HADAB; PerkinElmer), 27.96 nM Streptavidin-EU (#AD0062; PerkinElmer), 1.398 mM EDTA in 1× assay buffer+4.66× solution 2: 2.796 μM UBE2D2/Methylated-HA-Ubiquitin thioester adduct (BostonBiochem) in 1× assay buffer) were prepared. 4 μL of 2× enzyme solution was added to each well containing compound, briefly centrifuged to mix, and incubated for 60 min at room temperature. 4 μL of 2× kinase mixture was added, briefly centrifuged to mix, and incubated for 90 min. at room temperature. 6 μL of detection mixture was added to all wells and briefly centrifuged before incubating for 20 min at room temperature. Plates were read for TR-FRET using an Envision at excitation 340 nm, emission at 615 and 665 nm, 4 flashes per well. IC50 was generated using no LCK as the low control and DMSO as the high control.
(§2) Cbl-b Lck HTRF data in Table 3 is measured according to Example 25 herein; C-cbl Lck HTRF data is measured according to Example 25 herein.
(§3) SPR and the LCK biochemical assay are orthogonal assays: SPR is a protein binding assay while the LCK assay is an enzyme activity assay. SPR measures compound binding affinity to CBL-B/C-CBL, whereas LCK assay measures compound inhibition of CBL-B/C-CBL ubiquitin transfer activity.
A general note: Time-resolved FRET reads energy transfer from a long-lived donor to a nearby acceptor.

Test [2] concerns the target Cbl-b (Homo sapiens (Human), UniProt Q13191). Nature of the test: Cbl-b LCK Ub TR-FRET assay (Cbl-b Lck HTRF). The settings on record: for (fold-selectivity): Cbl-b and C-Cbl selectivity, Lck HTRF; for IC50: read-out: Cbl-b Lck HTRF IC50. It counts as biochemical. On the procedure: as §1, §2, §3

Cbl-b, sequence (Q13191 40-426): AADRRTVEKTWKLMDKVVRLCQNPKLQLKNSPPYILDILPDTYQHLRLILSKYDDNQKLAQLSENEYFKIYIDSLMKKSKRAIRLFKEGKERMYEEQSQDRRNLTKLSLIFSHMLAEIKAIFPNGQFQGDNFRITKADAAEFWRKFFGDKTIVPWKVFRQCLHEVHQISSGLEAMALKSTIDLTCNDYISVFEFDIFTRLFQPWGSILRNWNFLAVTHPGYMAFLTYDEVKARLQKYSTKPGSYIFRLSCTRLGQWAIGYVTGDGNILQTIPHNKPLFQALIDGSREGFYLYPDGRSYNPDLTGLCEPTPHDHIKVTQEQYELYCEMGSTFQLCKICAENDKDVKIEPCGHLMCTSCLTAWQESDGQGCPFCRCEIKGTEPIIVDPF
c-Cbl, sequence (P22681 47-435): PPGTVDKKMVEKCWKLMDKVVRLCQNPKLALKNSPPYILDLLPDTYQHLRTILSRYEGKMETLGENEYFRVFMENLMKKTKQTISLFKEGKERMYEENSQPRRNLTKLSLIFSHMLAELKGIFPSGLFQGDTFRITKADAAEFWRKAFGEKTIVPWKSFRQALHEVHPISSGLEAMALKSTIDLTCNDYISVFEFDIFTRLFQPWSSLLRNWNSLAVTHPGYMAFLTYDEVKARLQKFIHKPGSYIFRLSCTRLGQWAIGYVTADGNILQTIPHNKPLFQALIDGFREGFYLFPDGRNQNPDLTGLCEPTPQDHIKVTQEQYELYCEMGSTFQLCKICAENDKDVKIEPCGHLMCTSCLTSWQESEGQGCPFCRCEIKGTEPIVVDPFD

By IC50 is commonly meant the concentration needed to halve the response being measured. In turn, `Cn1cnnc1[C@H](F)C1(c2cccc(NC(=O)c3cc(CN4CC(C)(F)C4)cc(C4CC4)n3)c2)COC1` [Compound 7, (R)-6-cyclopropyl-N-(3-(3-(fluoro(4-methyl-4H-1,2,4-triazol-3-yl)methyl)oxetan-3-yl)phenyl)-4-((3-fluoro-3-methylazetidin-1-yl)methyl)picolinamide] had an IC50 in test [1] of 0.031 µM. For the same compound, in test [2], the “(fold-selectivity)” value is on record as “(1.8x)” and the half-maximal inhibitory concentration (IC50) was found to be 0.017 µM.
Turning to `Cn1cnnc1CC1(c2cccc(NC(=O)c3cc(CC(N)=O)cc(C(F)(F)F)n3)c2)COC1` [Compound 507, 4-(2-amino-2-oxoethyl)-N-(3-(3-((4-methyl-4H-1,2,4-triazol-3-yl)methyl)oxetan-3-yl)phenyl)-6-(trifluoromethyl)picolinamide], 0.089 µM corresponded to half-maximal inhibition in test [1] (IC50). Moreover, in test [2], the “(fold-selectivity)” value is on record as “(0.89x)” and the IC50 was determined as 0.1 µM.
`Cn1cnnc1[C@H](F)[C@@](C)(F)c1cccc(NC(=O)c2cc(CN3CCC4(CC4)C3)nc(C3CC3)n2)c1` [Compound 40, 6-(5-azaspiro[2.4]heptan-5-ylmethyl)-2-cyclopropyl-N-(3-((1S,2S)-1,2-difluoro-1-(4-methyl-4H-1,2,4-triazol-3-yl)propan-2-yl)phenyl)pyrimidine-4-carboxamide]: inhibition in test [1] was half-maximal at 2.1 µM (IC50). Besides, in test [2], the “(fold-selectivity)” value was “(2.3x)” and the IC50 was 0.88 µM.
Turning to `Cn1cnnc1[C@@H](F)C1(c2cccc(NC(=O)c3cc(CN4CC(C)(F)C4)cc(C4CC4)n3)c2)COC1` [Compound 8, (S)-6-cyclopropyl-N-(3-(3-(fluoro(4-methyl-4H-1,2,4-triazol-3-yl)methyl)oxetan-3-yl)phenyl)-4-((3-fluoro-3-methylazetidin-1-yl)methyl)picolinamide], it took 0.06 µM to reach half-maximal inhibition in test [1] (IC50). Further, in test [2], the “(fold-selectivity)” value was “(2.0x)” and the IC50 was determined as 0.03 µM.
With `Cn1cnnc1C[C@]1(c2cccc(NC(=O)c3cccc(C(F)(F)F)n3)c2)C[C@H](F)C1` [Compound 18, N-(3-((1R,3S)-3-fluoro-1-((4-methyl-4H-1,2,4-triazol-3-yl)methyl)cyclobutyl)phenyl)-6-(trifluoromethyl)picolinamide], the IC50 in test [1] turned out to be 0.28 µM. For the same compound, in test [2], the “(fold-selectivity)” value is given as “(1.1x)” and the IC50 came out at 0.26 µM.
Regarding `C[C@@H](c1cc(C(=O)Nc2cccc(C3([C@@H](F)c4nncn4C)COC3)c2)nc(C2CC2)c1)N1CCC2(CC2)C1` [Compound 22, 4-((S)-1-(5-azaspiro[2.4]heptan-5-yl)ethyl)-6-cyclopropyl-N-(3-(3-((R)-fluoro(4-methyl-4H-1,2,4-triazol-3-yl)methyl)oxetan-3-yl)phenyl)picolinamide], the IC50 in test [1] came out at 0.01 µM. In test [2], the “(fold-selectivity)” value is recorded as “(0.87x)” and the IC50 was 0.012 µM.
As to `Cn1cnnc1[C@H](F)C1(c2cccc(NC(=O)c3cc(CN4CC(C)(F)C4)nc(C4CC4)n3)c2)COC1` [Compound 20, (R)-2-cyclopropyl-N-(3-(3-(fluoro(4-methyl-4H-1,2,4-triazol-3-yl)methyl)oxetan-3-yl)phenyl)-6-((3-fluoro-3-methylazetidin-1-yl)methyl)pyrimidine-4-carboxamide], the IC50 came to 0.35 µM in test [1] and 0.27 µM in test [2]. The “(fold-selectivity)” value in test [2] is “(1.3x)”.
Consider `Cn1cnnc1[C@@H](F)[C@](C)(F)c1cccc(NC(=O)c2cc(CN3CCC4(CC4)C3)cc(C3CC3)n2)c1` [Compound 38, 4-(5-azaspiro[2.4]heptan-5-ylmethyl)-6-cyclopropyl-N-(3-((1R,2R)-1,2-difluoro-1-(4-methyl-4H-1,2,4-triazol-3-yl)propan-2-yl)phenyl)picolinamide], for which the IC50 in test [1] was determined as 0.042 µM. Besides, in test [2], the “(fold-selectivity)” value is “(1.7x)” and the IC50 was 0.025 µM.
As for `C[C@H](c1cc(C(=O)Nc2cccc(C3(Cc4nncn4C)COC3)c2)nc(C(F)(F)F)c1)N1CC(F)C1` [Compound 2, (R)-4-(1-(3-fluoroazetidin-1-yl)ethyl)-N-(3-(3-((4-methyl-4H-1,2,4-triazol-3-yl)methyl)oxetan-3-yl)phenyl)-6-(trifluoromethyl)picolinamide], the IC50 in test [1] worked out at 0.37 µM; in test [2] it was 0.22 µM. The “(fold-selectivity)” value in test [2] is given as “(1.7x)”.
In test [1], `Cn1cnnc1[C@@H](F)[C@@]1(c2cccc(NC(=O)c3cccc(C(F)(F)F)n3)c2)CCO1` [Compound 502, N-(3-((S)-2-((R)-fluoro(4-methyl-4H-1,2,4-triazol-3-yl)methyl)oxetan-2-yl)phenyl)-6-(trifluoromethyl)picolinamide] had an IC50 of 20 µM. In addition, in test [2], the “(fold-selectivity)” value is on record as “(1.0x)” and the IC50 is 20 µM.
As for `CC(C)[C@H]1CN(C)CCN1Cc1cc(C(=O)Nc2cccc(C3([C@H](F)c4nncn4C)CC(F)(F)C3)c2)nc(C2CC2)c1` [Compound 223, 6-cyclopropyl-N-(3-(3,3-difluoro-1-((S)-fluoro(4-methyl-4H-1,2,4-triazol-3-yl)methyl)cyclobutyl)phenyl)-4-(((S)-2-isopropyl-4-methylpiperazin-1-yl)methyl)picolinamide], the IC50 in test [1] was found to be 0.011 µM. Moreover, in test [2], the “(fold-selectivity)” value is on record as “(1.0x)” and the IC50 worked out at 0.011 µM.
As to `Cn1cnnc1[C@@H](F)C(C)(F)c1cccc(NC(=O)c2cc(CN3CC(C)(F)C3)nc(C3CC3)n2)c1` (stereo in doubt) [Compound 46, 2-cyclopropyl-N-(3-((1R,2R)-1,2-difluoro-1-(4-methyl-4H-1,2,4-triazol-3-yl)propan-2-yl)phenyl)-6-((3-fluoro-3-methylazetidin-1-yl)methyl)pyrimidine-4-carboxamide], in test [1], the IC50 was found to be 0.8 µM. In test [2], the “(fold-selectivity)” value is recorded as “(1.9x)” and the IC50 stood at 0.42 µM.
As for `Cn1cnnc1C(F)C1(c2cccc(NC(=O)c3nc(C(F)(F)F)c[nH]3)c2)COC1` (stereo not drawn) [Compound 124, N-(3-(3-(fluoro(4-methyl-4H-1,2,4-triazol-3-yl)methyl)oxetan-3-yl)phenyl)-4-(trifluoromethyl)-1H-imidazole-2-carboxamide], the IC50 in test [1] stood at 3.9 µM. Besides, in test [2], the “(fold-selectivity)” value was “(1.1x)” and the IC50 was found to be 3.7 µM.
As for `Cn1cnnc1[C@H](F)C1(c2cccc(NC(=O)c3cc(CN4CCC5(CC5)C4)nc(C4CC4)n3)c2)COC1` [Compound 62, (R)-6-((5-azaspiro[2.4]heptan-5-yl)methyl)-2-cyclopropyl-N-(3-(3-(fluoro(4-methyl-4H-1,2,4-triazol-3-yl)methyl)oxetan-3-yl)phenyl)pyrimidine-4-carboxamide], the results for the IC50 in test [1] and in test [2] were 0.14 µM and 0.12 µM, respectively. Moreover, the “(fold-selectivity)” value in test [2] is recorded as “(1.2x)”.
As to `Cn1cnnc1[C@@H](F)C(C)(F)c1cccc(NC(=O)c2cc(CN3CC(C)(F)C3)nc(C3CC3)n2)c1` (stereo in doubt) [Compound 45, 2-cyclopropyl-N-(3-((1R,2S)-1,2-difluoro-1-(4-methyl-4H-1,2,4-triazol-3-yl)propan-2-yl)phenyl)-6-((3-fluoro-3-methylazetidin-1-yl)methyl)pyrimidine-4-carboxamide], the concentration for half-maximal inhibition (IC50) stood at 16 µM in test [1] and 12 µM in test [2]. Further, the “(fold-selectivity)” value in test [2] was “(1.4x)”.
Consider `C[C@H](c1cc(C(=O)Nc2cccc(C3([C@@H](F)c4nncn4C)COC3)c2)nc(C2CC2)c1)N1CC(C)(F)C1` [Compound 113, 6-cyclopropyl-N-(3-(3-((R)-fluoro(4-methyl-4H-1,2,4-triazol-3-yl)methyl)oxetan-3-yl)phenyl)-4-((R)-1-(3-fluoro-3-methylazetidin-1-yl)ethyl)picolinamide], for which, in test [1], inhibition was half-maximal at 0.027 µM (IC50). Moreover, in test [2], the “(fold-selectivity)” value is reported as “(1.2x)” and the IC50 came out at 0.021 µM.
`Cn1cnnc1[C@@H](F)C1(c2cccc(NC(=O)c3cc(CN4CCC5(CC5)C4)cc(C4CC4)n3)c2)COC1` [Compound 6, (S)-4-(5-azaspiro[2.4]heptan-5-ylmethyl)-6-cyclopropyl-N-(3-(3-(fluoro(4-methyl-4H-1,2,4-triazol-3-yl)methyl)oxetan-3-yl)phenyl)picolinamide] registered an IC50 in test [1] of 0.033 µM. Moreover, in test [2], the “(fold-selectivity)” value was “(1.7x)” and the IC50 stood at 0.02 µM.
As to `Cn1cnnc1[C@@H](F)C1(c2cccc(NC(=O)c3cc(CN)cc(C(F)(F)F)n3)c2)COC1.O=CO` [Compound 65, (S)-4-(aminomethyl)-N-(3-(3-(fluoro(4-methyl-4H-1,2,4-triazol-3-yl)methyl)oxetan-3-yl)phenyl)-6-(trifluoromethyl)picolinamide formate], the IC50 in test [1] was 0.23 µM. In test [2], the “(fold-selectivity)” value is “(1.2x)” and the IC50 is 0.2 µM.

Source of the values: patent publication US20240300927A1, “AMIDES AS CBL-B INHIBITORS” (Genentech, Inc., priority 2021, published 2024).
